Where “and” joins values, the source holds several entries; their conditions need not be identical. Equal entries are not always repeated. Entries after “also recorded” stand apart in the source; their conditions may differ. Where two headings read alike, the source gives them in different places.
Assays:
[1] = MTT cytotoxicity assay on MH-22A tumor cells, 72 h; format: cell-based, mouse; conditions: mouse, MH-22A hepatocarcinoma cells
Method: (§1) Tumor cell lines HT-1080 (human connective tissue fibrosarcoma) and MH-22A (mouse hepatocarcinoma) were used. All of the cells were obtained from the American Type Culture Collection ((ATCC,) Rockville, MD, USA). HT-1080 and MH-22A cells (4 × 10^4 cell/mL) were seeded in 96-well plates in Dulbecco’s modified Eagle’s medium (DMEM) containing 10% fetal bovine serum and cultivated for 72 h at 37 °C, 5% CO2 by exposure to different compounds concentrations (100 μg/mL, 25 μg/mL, 6.25 μg/mL, and 1.56 μg/mL). Cell viability was measured using 3-(4,5-dimethylthiazol-2-yl)-2,5-diphenyl-tetrazolium bromide (MTT) assay. In brief, after incubating with compounds, the culture medium was removed and fresh medium with 0.2 mg/mL MTT was added in each well of the plate. After incubation (3 h, 37 °C, 5% CO2), the medium with MTT was removed, and 200 μL of DMSO was added at once to each sample. The samples were tested at 540 nm on a Tecan multiplate reader Infinite1000 (Tecan Austria GmbH, Salzburg, Austria). The IC50 was calculated using the program Graph Pad Prism® 3.0.

[2] = tested on: MH-22A (mouse hepatocarcinoma) cells; experiment: MTT cytotoxicity assay on MH-22A tumor cells, 72 h; format: cell-based; conditions: MTT, 72 h; ne = no effect in the tested concentration (up to 100 μg/mL)
Method: as §1

[3] = tested on: Bacillus subtilis subsp. spizizenii; experiment: Toxicity screen, serial dilution-spot test; format: cell-based; conditions: gram positive; 24 h exposure in DI water, 28 °C; 0.0001 = no colonies at 0.001 mM;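 further: last dilution that did not fully inhibit growth with colonies still present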
Method: (§2) An estimation of the toxicity of 4-(N-alkylpyridinium)-1,4-DHP derivatives 3, 6, 7, and 9–11 was performed using six prokaryotic (bacteria) and one eukaryotic (yeast) microorganism species according to the procedure elaborated by Suppi et al.. The microorganisms used in the study and their origin were: Bacillus subtilis subsp. spizizenii (ATCC® 6633™*, Microbiologics®, St Cloud, MN, USA), Escherichia coli (ATCC® 8739, Microbiologics®), Klebsiella pneumoniae (Latvian Microorganisms strain collection, LMKK, strain number 535, Riga, Latvia), Micrococcus luteus (LMKK, No. 25), Pseudomonas aeruginosa (NCTC 12924, Biosciences Ltd., Dublin, Ireland), Proteus mirabilis (LMKK, No 590), and Saccharomyces cerevisiae, CEN.PK2 strain [32].
(§3) Bacteria and yeast cultures were cultivated until their exponential growth phase (optical density max 1); then, 100 µL of cell suspension was taken, washed in deionised (DI) water, and added to serially diluted samples of corresponding 4-(N-alkylpyridinium)-1,4-DHPs in DI water. All 1,4-DHPs were tested in five serially diluted concentrations (10 mM, 1 mM, 0.1 mM, 0.01 mM, and 0.001 mM). Test organisms were exposed to 1,4-DHP derivatives in DI water on 96-well microplates (Corning, Corning, NY, USA) at 28 °C for 24 h without shaking in the dark. Then, a 5 µL sample was taken from each well and spotted on yeast extract, bactopeptone, dextrose broth (YPD) (yeast extract 1%, bactopeptone 2%, glucose 2% and agar 2%) plates to test the growth of yeasts and lysogeny broth (LB) (yeast extract 0.5%, bactopeptone 1%, NaCl 0.5% and agar 2%) to test the growth for bacteria. Plates were left in 30 °C for 24 h, and assessed for microbial growth.
(§4) If there were no colonies after incubation with 1,4-DHPs in the last concentration of (0.001 mM), then their boundary concentration was set to 0.0001 mM or 0.1 µM.

Escherichia coli = experiment: Toxicity screen, serial dilution-spot test; format: cell-based; conditions: gram negative; 24 h exposure in DI water, 28 °C; 0.0001 = no colonies at 0.001 mM;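 further: last dilution that did not fully inhibit growth with colonies still present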
Method: as §2, §3, §4

Klebsiella pneumoniae = experiment: Toxicity screen, serial dilution-spot test; format: cell-based; conditions: gram negative; 24 h exposure in DI water, 28 °C; 0.0001 = no colonies at 0.001 mM;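 further: last dilution that did not fully inhibit growth with colonies still present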
Method: as §2, §3, §4

Micrococcus luteus = experiment: Toxicity screen, serial dilution-spot test; format: cell-based; conditions: gram positive; 24 h exposure in DI water, 28 °C; 0.0001 = no colonies at 0.001 mM;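 further: last dilution that did not fully inhibit growth with colonies still present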
Method: as §2, §3, §4

Proteus mirabilis = experiment: Toxicity screen, serial dilution-spot test; format: cell-based; conditions: gram negative; 24 h exposure in DI water, 28 °C; 0.0001 = no colonies at 0.001 mM;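 further: last dilution that did not fully inhibit growth with colonies still present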
Method: as §2, §3, §4

Pseudomonas aeruginosa = experiment: Toxicity screen, serial dilution-spot test; format: cell-based; conditions: gram negative; 24 h exposure in DI water, 28 °C; 0.0001 = no colonies at 0.001 mM;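 further: last dilution that did not fully inhibit growth with colonies still present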
Method: as §2, §3, §4

[4] = tested on: Saccharomyces cerevisiae, CEN.PK2 strain; experiment: Toxicity screen, serial dilution-spot test; format: cell-based; conditions: yeast; 24 h exposure in DI water, 28 °C; 0.0001 = no colonies at 0.001 mM;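 further: last dilution that did not fully inhibit growth with colonies still present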
Method: as §2, §3, §4

[5] = tested on: six prokaryotic (bacteria) and one eukaryotic (yeast) microorganism species; experiment: Toxicity screen, whole panel of microorganisms; format: cell-based; conditions: concentrations tested 10 to 0.001 mM
Method: as §2, §3, §4

[6] = Self-assembling properties by dynamic light scattering (DLS); format: physicochemical; conditions: for PDI ± SD, 1 Set: freshly prepared samples; for Zeta-Pot ± SD: freshly prepared samples in water, 0.5 mg/mL (1–7), 0.25 mg/mL (8–10), 0.1 mg/mL (11); for PDI ± SD, 2 Set: two weeks after the first set, samples stored at r.t.; for Stability of nanoparticles: two weeks of storage at r.t., DLS
Method: Samples of compounds for dynamic light scattering (DLS) studies were prepared by thin-film hydration method in an aqueous solution at a concentration of 0.5 mg/mL for compounds 1–7, 0.25 mg/mL for compounds 8–10, and 0.1 mg/mL for compound 11. A corresponding amount of compounds was weighted in a round-bottom flask and dissolved in chloroform; then, the organic solvent was removed in vacuo, and the residue was dried in high vacuo for 1 h. An appropriate amount of deionised water was added to each flask for the preparation of stock solutions with the above-mentioned concentrations. Samples were prepared by sonication using a bath-type sonicator (Cole Parmer Ultrasonic Cleaner 8891CPX (Vernon Hills, IL, USA)). Samples were sonicated for 60 min at 50 °C.
The DLS measurements of the nanoparticles in an aqueous solution were carried out on a Zetasizer Nano ZSP (Malvern Panalytical Ltd., Malvern, UK) instrument with Malvern Instruments Ltd. Software 7.12, using the following specifications—medium: water; refractive index: 1.33; viscosity: 0.8872 cP; temperature: 25 °C; dielectric constant: 78.5; nanoparticles: liposomes; refractive index of materials: 1.60; detection angle: 173°; wavelength: 633 nm. Data were analysed using the multimodal number distribution software that was included with the instrument. The measurements were performed in triplicate in order to check their reproducibility.

[7] = MTT, 72 h, ne = no effect in the tested concentration (up to 100 μg/mL), read-out: Cytotoxicity IC50, MH-22A

SMILES	IC50 at 72 h [1, 7]	IC50 [2]	Boundary concentration, B. subtilis [3]	Boundary concentration, E. coli (Escherichia coli)	Boundary concentration, K. pneumoniae (Klebsiella pneumoniae)	Boundary concentration, M. luteus (Micrococcus luteus)	Boundary concentration, P. mirabilis (Proteus mirabilis)	Boundary concentration, P. aeruginosa (Pseudomonas aeruginosa)	Boundary concentration, S. cerevisiae [4]	Effect on survival of microorganisms [5]	PDI ± SD, 1 Set [6]	Zeta-Pot ± SD [6]	PDI ± SD, 2 Set [6]	Stability of nanoparticles [6]	IC50 at 72 h ([1]; as printed in the supplementary toxicity table, read-out: Cytotoxicity, IC50, MH-22A (supplementary table, for comparison))	Cytotoxicity IC50, MH-22A [2]
C#CCOC(=O)C1=C(C)NC(C)=C(C(=O)OCC#C)C1c1ccc[n+](CCCCCCCCCCCC)c1 [Compound 9]	1 to 4 µM	1 ± 0.2 µM	0.01 mM	0.0001 mM	0.1 mM	0.0001 mM	0.01 mM	0.01 mM	0.0001 mM	toxic at various degrees	0.36 and 0.36 ± 0.08	+32.00 ± 4.81 mV	0.57 and 0.57 ± 0.05	lost their homogeneity after two weeks of storage	–	–
CCCCCCCCCCCC[n+]1cccc(C2C(C(=O)OCC)=C(C)NC(C)=C2C(=O)OCC)c1 [Compound 3]	15 ± 1 µM	–	0.01 mM	0.01 mM	0.1 mM	0.001 mM	0.001 mM	0.01 mM	0.001 mM	toxic at various degrees	0.14 and 0.14 ± 0.01	+57.73 ± 2.30 mV	0.17 and 0.17 ± 0.02	stable after two weeks of storage; also recorded: confirmed the stability of nanoparticles	–	–
C#CCN1C(C)=C(C(=O)OCC)C(c2ccc[n+](CCCCCCCCCCCC)c2)C(C(=O)OCC)=C1C [Compound 6]	1 to 4 µM	1 ± 0.2 µM	0.0001 mM	0.001 mM	0.1 mM	0.0001 mM	1 mM	0.01 mM	0.001 mM	toxic at various degrees	0.15 and 0.15 ± 0.02	–	0.20 and 0.20 ± 0.01	stable after two weeks of storage; also recorded: confirmed the stability of nanoparticles	–	–
C#CCOC(=O)C1=C(C)NC(C)=C(C(=O)OCC#C)C1c1ccc[n+](CC)c1 [Compound 7]	–	–	0.1 mM	1 mM	10 mM	0.001 mM	0.1 mM	0.01 mM	1 mM	–	0.90 and 0.90 ± 0.03	−0.78 ± 0.26 mV	0.73 ± 0.09	weak stability	1000 µM	did not demonstrate any cytotoxic effect and ne

— paper PMC6470589, “Contribution of Molecular Structure to Self-Assembling and Biological Properties of Bifunctional Lipid-Like 4-(N-Alkylpyridinium)-1,4-Dihydropyridines” (Pharmaceutics, 2019)
